The results in this text go back to BindingDB's records for doi:10.1021/jm0205752 (University of Queensland, 2004).

This test addresses T1, Alpha-2A adrenergic receptor [16-465] (Rattus norvegicus, UniProt P22909).
T1 construct: 16-465
T1 sequence (P22909 whole entry): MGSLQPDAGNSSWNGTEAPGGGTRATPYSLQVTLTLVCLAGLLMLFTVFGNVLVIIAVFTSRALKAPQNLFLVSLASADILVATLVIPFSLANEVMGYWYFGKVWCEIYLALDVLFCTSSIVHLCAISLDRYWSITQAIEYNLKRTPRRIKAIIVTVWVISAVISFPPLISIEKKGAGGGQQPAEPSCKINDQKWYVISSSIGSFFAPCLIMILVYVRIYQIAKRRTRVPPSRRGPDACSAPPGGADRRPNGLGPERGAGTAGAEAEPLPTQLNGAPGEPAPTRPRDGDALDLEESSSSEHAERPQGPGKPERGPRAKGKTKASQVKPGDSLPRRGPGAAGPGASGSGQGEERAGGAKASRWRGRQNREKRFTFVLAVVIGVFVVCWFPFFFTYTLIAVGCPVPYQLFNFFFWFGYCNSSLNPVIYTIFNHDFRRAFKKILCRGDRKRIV
Nature of the test: alpha-Adrenoceptor Radioligand Binding Assay. Particulars: pH 7.7; 25 °C. As for the experimental part:
The binding affinity of compound was evaluated using [3H] Clonidine as ligand in competition binding experiments. Nonspecific binding was determined as the concentration of ligand bound in the presence of 2 uM phentolamine. Ki values were determined by the equation: Ki = IC50/(1 + [clonidine]/KD).

One may read the Ki as the equilibrium dissociation constant of an inhibitor or competing ligand from its target. Low readings indicate a stronger hold on the target, high ones a looser hold on the target.

Molecules are shown by their SMILES.

Compound `NS(=O)(=O)c1ccc2c(c1)CNCC2` [1,2,3,4-tetrahydroisoquinoline-7-sulfonamide] registered a Ki of 100 µM.
